One assay deals with HLA-A*02. Kind of assay: MHC binding assay by UV-ligand exchange and beta2m ELISA, HLA-A*02. On the set-up: species or system human. As to conditions: binding to HLA-A*02 ranged by peptide exchange yield (UV-ligand exchange, β2m ELISA). An excerpt:
MHC Binding Assays Candidate peptides for T cell based therapies according to the present invention were further tested for their MHC binding capacity (affinity). The individual peptide-MHC complexes were produced by UV-ligand exchange, where a UV-sensitive peptide is cleaved upon UV-irradiation, and exchanged with the peptide of interest as analyzed. Only peptide candidates that can effectively bind and stabilize the peptide-receptive MHC molecules prevent dissociation of the MHC complexes. To determine the yield of the exchange reaction, an ELISA was performed based on the detection of the light chain (β2m) of stabilized MHC complexes. The assay was performed as generally described in Rodenko et al. (Rodenko et al., 2006).
96 well MAXISorp plates (NUNC) were coated over night with 2 ug/ml streptavidin in PBS at room temperature, washed 4× and blocked for 1 h at 37° C. in 2% BSA containing blocking buffer. Refolded HLA-A*02:01/MLA-001 monomers served as standards, covering the range of 15-500 ng/ml. Peptide-MHC monomers of the UV-exchange reaction were diluted 100 fold in blocking buffer. Samples were incubated for 1 h at 37° C., washed four times, incubated with 2 ug/ml HRP conjugated anti-β2m for 1 h at 37° C., washed again and detected with TMB solution that is stopped with […]. Absorption was measured at 450 nm. Candidate peptides that show a high exchange yield (preferably higher than 50%, most preferred higher than 75%) are generally preferred for a generation and production of antibodies or fragments thereof, and/or T cell receptors or fragments thereof, as they show sufficient avidity to the MHC molecules and prevent dissociation of the MHC complexes.
Background: An ELISA detects its analyte on a solid surface through an enzyme-linked reagent.

Another assay has as its system CD8+ T cells. Kind of assay: In vitro T-cell priming assay (aAPCs loaded with peptide/MHC and anti-CD28, multimer staining readout). The format is cell-based, human. The following applies: in vitro immunogenicity of HLA class I peptides. The procedure:
In an aspect, the peptides are pre-screened for immunogenicity before being included in the warehouse. By way of example, and not limitation, the immunogenicity of the peptides included in the warehouse is determined by a method comprising in vitro T-cell priming through repeated stimulations of CD8+ T cells from healthy donors with artificial antigen presenting cells loaded with peptide/MHC complexes and anti-CD28 antibody.
In order to obtain information regarding the immunogenicity of the TUMAPs of the present invention, the inventors performed investigations using an in vitro T-cell priming assay based on repeated stimulations of CD8+ T cells with artificial antigen presenting cells (aAPCs) loaded with peptide/MHC complexes and anti-CD28 antibody.
In order to perform in vitro stimulations by artificial antigen presenting cells loaded with peptide-MHC complex (pMHC) and anti-CD28 antibody, the inventors first isolated CD8+ T cells from fresh HLA-A*02 leukapheresis products via positive selection using CD8 microbeads (Miltenyi Biotec, Bergisch-Gladbach, Germany) of healthy donors obtained from the University clinics Mannheim, Germany, after informed consent.
PBMCs and isolated CD8+ lymphocytes were incubated in T-cell medium (TCM) until use consisting of RPMI-Glutamax (Invitrogen, Karlsruhe, Germany) supplemented with 10% heat inactivated human AB serum (PAN-Biotech, Aidenbach, Germany), 100 U/ml Penicillin/100 μg/ml Streptomycin (Cambrex, Cologne, Germany), 1 mM sodium pyruvate (CC Pro, Oberdorla, Germany), 20 μg/ml Gentamycin (Cambrex). 2.5 ng/ml IL7 (PromoCell, Heidelberg, Germany) and 10 U/ml IL-2 (Novartis Pharma, Nürnberg, Germany) were also added to the TCM at this step.
Generation of pMHC/anti-CD28 coated beads, T-cell stimulations and readout was performed in a highly defined in vitro system using four different pMHC molecules per stimulation condition and 8 different pMHC molecules per readout condition.
The purified co-stimulatory mouse IgG2a anti human CD28 Ab 9.3 (Jung et al., 1987) was chemically biotinylated using Sulfo-N-hydroxysuccinimidobiotin as recommended by the manufacturer (Perbio, Bonn, Germany). Beads used were 5.6 μm diameter streptavidin coated polystyrene particles (Bangs Laboratories, Illinois, USA).
pMHC used for positive and negative control stimulations were A*0201/MLA-001 (peptide […] (SEQ ID NO. 303) from modified Melan-A/MART-1) and A*0201/DDX5-001 ([…] from DDX5, SEQ ID NO. 304), respectively.
800.000 beads/200 μl were coated in 96-well plates in the presence of 4×12.5 ng different biotin-pMHC, washed and 600 ng biotin anti-CD28 were added subsequently in a volume of 200 μl. Stimulations were initiated in 96-well plates by co-incubating 1×10^6 CD8+ T cells with 2×10^5 washed coated beads in 200 μl TCM supplemented with 5 ng/ml IL-12 (PromoCell) for 3 days at 37° C. Half of the medium was then exchanged by fresh TCM supplemented with 80 U/ml IL-2 and incubating was continued for 4 days at 37° C. This stimulation cycle was performed for a total of three times. For the pMHC multimer readout using 8 different pMHC molecules per condition, a two-dimensional combinatorial coding approach was used as previously described (Andersen et al., 2012) with minor modifications encompassing coupling to 5 different fluorochromes. Finally, multimeric analyses were performed by staining the cells with Live/dead near IR dye (Invitrogen, Karlsruhe, Germany), CD8-FITC antibody clone SK1 (BD, Heidelberg, Germany) and fluorescent pMHC multimers. For analysis, a BD LSRII SORP cytometer equipped with appropriate lasers and filters was used. Peptide specific cells were calculated as percentage of total CD8+ cells. Evaluation of multimeric analysis was done using the FlowJo software (Tree Star, Oregon, USA). In vitro priming of specific multimer+CD8+ lymphocytes was detected by comparing to negative control stimulations.

The test system of assay [1] is advanced non-resectable HCC. As to conditions: patients with advanced non-resectable HCC; cited from earlier work.
Another assay has as its target HLA-A2 (Homo sapiens, UniProt P04439, D140Y/D185E/D98H/E176V/E277Q/G131W/G231S/I119V/I121R/I166T/I218V/L10V/L300P/L318F/N151K/N90K/P208A/P217A/Q86G/Q94H/R138H/R169H/T345S). As to conditions: prediction in US20150306197 A1 / US20110142842 A1, not tested further; cited from earlier work.

Here are results for three compounds from patent publication US10143731B2, “Peptides and combination of peptides for use in immunotherapy against various cancers” (immatics biotechnologies GmbH, priority 2015, dated 2018).

With “249 (GLCERLVSL; listed as Homo sapiens) [compound 249]”, in the assay with HLA-A*02, the Peptide exchange result was “++++ (> = 75% = ++++)”. The “Wells positive [%]” value in the assay with CD8+ T cells is listed as “+ (<20% = +)”.

`CNC(=O)c1cc(Oc2ccc(NC(=O)Nc3ccc(Cl)c(C(F)(F)F)c3)cc2)ccn1` [Sorafenib]: the increase of survival result in assay [1] was “about 3 months”.

For the compound “KLFTSVFGV (listed as Homo sapiens) [SEQ ID No. 305]”, the “predicted binding to HLA-A2 / HLA-A*0201” value with HLA-A2 is “binding to HLA-A*0201”.
